We go through 10 molecules from PubChem BioAssay (NCI).

Some test systems named below: COLO 205 colon; EKVX NSCLC; HL-60(TB) leukemia; NCI-H460 lung; OVCAR-4 ovarian; SF-268 CNS; SK-MEL-2 melanoma; SNB-19 CNS; SNB-75 CNS; UACC-257 melanoma; M14 melanoma; MDA-MB-435; 786-0 renal.
Holding throughout (experiment): NCI-60 cell line screen, 48 h

Several values for one entry are separate records, joined by “and”; a condition that tells them apart may be missing. Equal entries are not always repeated.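 Interpolation was linear, between the two tested concentrations surrounding the appropriate level; five concentrations were tested over 48 hours in 96-well plates. At the GI50, growth is halved. TGI: total growth inhibition.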 Bounds are passed on as bounds.

For the molecule `CN1C(=O)c2ccccc2NC(=O)c2cnn(C)c21`, the TGI in the assay with COLO 205 colon, with EKVX NSCLC, in the assay with HL-60(TB) leukemia, in the assay with NCI-H460 lung, in the assay with OVCAR-4 ovarian and with SF-268 CNS was greater than 100 µM each time. Also, the TGI in the assay with SK-MEL-2 melanoma, in the assay with SNB-19 CNS, in the assay on SNB-75 CNS and in the assay on UACC-257 melanoma was greater than 100 µM each time.

Regarding `COCO[C@@H]1C[C@H]2C(O)Nc3ccccc3C(=O)N2C1` (some centres undefined), the TGI in the assay on COLO 205 colon, with EKVX NSCLC, in the assay on HL-60(TB) leukemia, in the assay on M14 melanoma, in the assay with MDA-MB-435 and with NCI-H460 lung was greater than 100 µM throughout. Further, the TGI with OVCAR-4 ovarian, in the assay with SF-268 CNS, with SK-MEL-2 melanoma, in the assay on SNB-19 CNS, in the assay on SNB-75 CNS and in the assay on UACC-257 melanoma was greater than 100 µM in each case.

For `CN(C)c1ccc(/C=C2/SC(=S)NC2=O)cc1`, the TGI in the assay on 786-0 renal, with COLO 205 colon, in the assay on EKVX NSCLC, with HL-60(TB) leukemia, in the assay on M14 melanoma and in the assay with MDA-MB-435 was greater than 100 µM each time. In addition, the TGI with NCI-H460 lung, in the assay with OVCAR-4 ovarian, in the assay with SF-268 CNS, with SK-MEL-2 melanoma, with SNB-19 CNS and in the assay with SNB-75 CNS was greater than 100 µM each time. For the same molecule, the TGI in the assay on UACC-257 melanoma was greater than 100 µM.

With `N#C[S-].[Nd+3].c1cnc2c(c1)ccc1cccnc12.c1cnc2c(c1)ccc1cccnc12.c1cnc2c(c1)ccc1cccnc12`, the TGI is 11.8 µM with 786-0 renal; 15.6 µM with COLO 205 colon; 18.7 µM in the assay on EKVX NSCLC; 6.17 µM with M14 melanoma; 14.4 µM in the assay on OVCAR-4 ovarian; 43 µM in the assay with SF-268 CNS. The TGI was 20.3 µM with SNB-19 CNS and 26.2 µM in the assay on SNB-75 CNS.

As to `C=CCc1cc(-c2cc(CC=C)c(O)c(CN(CCCl)CCCl)c2)cc(CN(CCCl)CCCl)c1O`, the TGI in the assay on 786-0 renal was 37.9 µM; in the assay on COLO 205 colon, 43.4 µM; in the assay on EKVX NSCLC, 22.5 µM; in the assay with HL-60(TB) leukemia, greater than 100 µM; in the assay with M14 melanoma, 38.3 µM; in the assay with MDA-MB-435 it was 31.1 µM. Moreover, the TGI stood at 29.1 µM in the assay with NCI-H460 lung; 52.6 µM in the assay on OVCAR-4 ovarian; 47.8 µM with SF-268 CNS; 40.6 µM in the assay on SK-MEL-2 melanoma; 51.8 µM with SNB-19 CNS; 58.6 µM in the assay on SNB-75 CNS. Besides, the TGI with UACC-257 melanoma was found to be 33.7 µM.

Take `CC1=NN(c2cccc(Cl)c2)C2(SCC(=O)N2c2nc3ccccc3s2)/C1=C\c1ccc(Cl)cc1` (centres undefined): the TGI with 786-0 renal is 48.1 µM; with EKVX NSCLC, greater than 100 µM; with HL-60(TB) leukemia it was 24.3 µM; with M14 melanoma it was 43.5 µM; with MDA-MB-435 it was 43.1 µM; with NCI-H460 lung, 33.3 µM. The TGI came out at 55.1 µM with OVCAR-4 ovarian, 46.2 µM in the assay on SF-268 CNS, 35.7 µM with SK-MEL-2 melanoma and 63.9 µM with UACC-257 melanoma.

Turning to `O=C1C=CC2(O[C@H](c3ccccc3)[C@@H](c3ccccc3)O2)C(SC(=O)c2ccccc2)C1` (some centres undefined), the TGI with 786-0 renal turned out to be 1.76 µM; with COLO 205 colon, 2.69 µM; in the assay on HL-60(TB) leukemia, 7.7 µM; with M14 melanoma, 3.07 µM; in the assay with MDA-MB-435 it was 4.8 µM; in the assay with NCI-H460 lung it was 15.6 µM. In addition, the TGI in the assay on OVCAR-4 ovarian worked out at 5.13 µM; with SF-268 CNS it was 3.02 µM; in the assay with SK-MEL-2 melanoma it was 3.51 µM; with SNB-19 CNS, 5.63 µM; with SNB-75 CNS, 5.34 µM; with UACC-257 melanoma it was 3.97 µM.

As to `O=c1[nH]c(Nc2ccc(F)c(Cl)c2)nc2nc[nH]c12`, the TGI in the assay with 786-0 renal, in the assay on COLO 205 colon, with EKVX NSCLC, in the assay on HL-60(TB) leukemia, with M14 melanoma and in the assay on MDA-MB-435 was greater than 100 µM each time. The TGI in the assay with NCI-H460 lung is greater than 100 µM; in the assay on OVCAR-4 ovarian, greater than 100 µM; in the assay on SF-268 CNS it was greater than 100 µM; with SK-MEL-2 melanoma it was greater than 100 µM; with SNB-19 CNS it was greater than 100 µM; in the assay with SNB-75 CNS, 97.8 µM. In the assay on UACC-257 melanoma, this molecule returned a TGI greater than 100 µM.

In the case of `CC1=C(C)C(=O)O[C@@H]([C@](C)(O)[C@]2(O)CC[C@@]3(O)[C@@H]4C[C@H]5O[C@]56[C@@H](O)C=CC(=O)[C@]6(C)[C@H]4CC[C@]23C)C1`, the GI50 was 0.0847 µM and 0.0461 µM with COLO 205 colon; 2.5 µM and 0.404 µM in the assay with EKVX NSCLC; 0.0665 µM and 0.053 µM with HL-60(TB) leukemia; 2 µM with NCI-H460 lung; 0.0878 µM and 0.43 µM in the assay with OVCAR-4 ovarian; 1.3 µM and 0.381 µM with SF-268 CNS. In the assay with SK-MEL-2 melanoma, the GI50 was 0.385 µM. Besides, the TGI in the assay with COLO 205 colon was 0.436 µM and 0.255 µM; with EKVX NSCLC it was 3.36 µM and 1.76 µM; in the assay with NCI-H460 lung, 9.22 µM and 9.66 µM; in the assay on OVCAR-4 ovarian, 3.08 µM and 1 µM; with SK-MEL-2 melanoma it was 1.65 µM and 2.56 µM; in the assay on SNB-19 CNS, 31.1 µM. Further, the TGI in the assay on SNB-75 CNS came out at 0.884 µM; in the assay with UACC-257 melanoma, 3.84 µM.

On to `Cc1ccc(CC(=O)Nc2ccc(NC(=O)/C=C/NC(=O)/C=C/c3ccc(-c4ccccc4)cc3)cc2C(=O)c2ccccc2)cc1`, for which the TGI worked out at 3.34 µM with 786-0 renal; 4.53 µM with COLO 205 colon; 3.58 µM in the assay on EKVX NSCLC; 54.4 µM with HL-60(TB) leukemia; 7.3 µM with M14 melanoma; 10.8 µM in the assay on MDA-MB-435. The TGI is 4.6 µM with NCI-H460 lung; 3.41 µM in the assay on OVCAR-4 ovarian; 9.46 µM in the assay with SF-268 CNS; 5.79 µM in the assay with SK-MEL-2 melanoma; 16 µM with SNB-19 CNS; 6.59 µM in the assay with SNB-75 CNS. The TGI in the assay on UACC-257 melanoma is 4.71 µM.
